Patent US4199504A (priority 1978, dated 1980)

Legend:
[1] = tested on: experimental malignancies; settings: naturally-occurring Vinca alkaloids; prior patents; cited from earlier work
[2] = Titration pKa' in 66 percent DMF; format: physicochemical
B16 melanoma = B16 melanoma transplanted in mice, tumor inhibition or prolongation of survival; format: in vivo
Description: (§1) The compounds of this invention and those preparable by the process disclosed herein are active against transplanted tumors in mice in vivo.
(§2) The following table--Table 1--gives the results of experiments in which mice bearing transplanted Gardner lymphosarcoma (GLS), C3 H mammary tumor, B16 melanoma, P 1534(J) leukemia, P388 leukemia or 755 adenocarcinoma were treated with a compound of this invention. In the table, column 1 gives the name of the compound; column 2, the tumor system employed; column 3, the dosage schedule and column 4, the percent inhibition of tumor growth or increased life span.

P388 leukemia = P388 leukemia transplanted in mice, tumor inhibition or prolongation of survival; format: in vivo
Description: as §1, §2

Structure (SMILES): CCC1(O)CN2CCc3c([nH]c4ccccc34)C(C(=O)OC)(c3cc4c(cc3OC)N(C)C3C(O)(C(=O)OC)C(OC(C)=O)C5(CC)C=CCN6CCC43C65)CC(O)(C2)C1 (stereo not drawn) [leurocolombine]
- active in the treatment of experimental malignancies in animals [1]: active

Structure (SMILES): CCC1(O)CC2CN(CCc3c([nH]c4ccccc34)C(C(=O)OC)(c3cc4c(cc3OC)N(C)C3C(O)(C(=O)OC)CC5(CC)C=CCN6CCC43C65)C2)C1 (stereo not drawn) [4-desacetoxyvinblastine]
- active in the treatment of experimental malignancies in animals [1]: active

Structure (SMILES): CCC1(O)CC2CN(CCc3c([nH]c4ccccc34)C(C(=O)OC)(c3cc4c(cc3OC)N(C)C3C(O)(C(=O)NCCN(CCNC(=O)C5(O)C(O)C6(CC)C=CCN7CCC8(c9cc(C%10(C(=O)OC)CC%11CN(CCc%12c%10[nH]c%10ccccc%12%10)CC(O)(CC)C%11)c(OC)cc9N(C)C58)C76)CCNC(=O)C5(O)C(O)C6(CC)C=CCN7CCC8(c9cc(C%10(C(=O)OC)CC%11CN(CCc%12c%10[nH]c%10ccccc%12%10)CC(O)(CC)C%11)c(OC)cc9N(C)C58)C76)C(O)C5(CC)C=CCN6CCC43C65)C2)C1 (stereo not drawn) [tris [β-(4-desacetyl VLB C-3 carboxamido)ethyl]amine]
- pKa' [2]: 7.25
- pKa' (first value) [2]: 5.2

Structure (SMILES): CCC1(O)CC2CN(CCc3c([nH]c4ccccc34)C(C(=O)OC)(c3cc4c(cc3OC)N(C)C3C(O)(C(=O)NCCCSSCCCNC(=O)C5(O)C(O)C6(CC)C=CCN7CCC8(c9cc(C%10(C(=O)OC)CC%11CN(CCc%12c%10[nH]c%10ccccc%12%10)CC(O)(CC)C%11)c(OC)cc9N(C)C58)C76)C(O)C5(CC)C=CCN6CCC43C65)C2)C1 (stereo not drawn) [bis [γ-(4-desacetyl VLB C-3 carboxamido)propyl]disulfide disulfate]
- Percent Inhibition or Prolongation of Survival Time (B16 melanoma; B16, 0.6 mg./kg. × 3): 99%
- number of indefinite survivors (B16 melanoma; B16, 0.6 mg./kg. × 3): 8
- Percent Inhibition or Prolongation of Survival Time (B16 melanoma; B16, 0.9 mg./kg. × 3): 61%
- number of indefinite survivors (B16 melanoma; B16, 0.9 mg./kg. × 3): 5
- Percent Inhibition or Prolongation of Survival Time (B16 melanoma; B16, 1.2 mg./kg. × 3): 68%
- number of indefinite survivors (B16 melanoma; B16, 1.2 mg./kg. × 3): 8

Structure (SMILES): CCC1(O)CC2CN(CCc3c([nH]c4ccccc34)C(C(=O)OC)(c3cc4c(cc3OC)N(C)C3C(O)(C(=O)NCCCCCCNC(=O)C5(O)C(O)C6(CC)C=CCN7CCC8(c9cc(C%10(C(=O)OC)CC%11CN(CCc%12c%10[nH]c%10ccccc%12%10)CC(O)(CC)C%11)c(OC)cc9N(C)C58)C76)C(O)C5(CC)C=CCN6CCC43C65)C2)C1 (stereo not drawn) [1,6-bis(4-Desacetyl VLB C-3 carboxamido)hexane disulfate]
- Percent Inhibition or Prolongation of Survival Time (P388 leukemia; P388, 0.9 mg./kg. × 3): 27%
- Percent Inhibition or Prolongation of Survival Time (P388 leukemia; P388, 1.2 mg./kg. × 3): 74%

Structure (SMILES): CCC1(O)CC2CN(CCc3c([nH]c4ccccc34)C(C(=O)OC)(c3cc4c(cc3OC)N(C)C3C(O)(C(=O)NCCCCCCNC(=O)C5(O)C(O)C6(CC)C=CCN7CCC8(c9cc(C%10(C(=O)OC)CC%11CN(CCc%12c%10[nH]c%10ccccc%12%10)CC(O)(CC)C%11)c(OC)cc9N(C)C58)C76)C(O)C5(CC)C=CCN6CCC43C65)C2)C1 (stereo not drawn) [1,6-bis(4-desacetyl VLB C-3 carboxamido)hexane]
- pKa' [2]: 7.27
- pKa' (first value) [2]: 5.27

Structure (SMILES): CCC1(O)CC2CN(CCc3c([nH]c4ccccc34)C(C(=O)OC)(c3cc4c(cc3OC)N(C)C3C(O)(C(=O)OC)C(OC(C)=O)C5(CC)C=CCN6CCC43C65)C2)C1 (stereo not drawn) [leurosidine]
- active in the treatment of experimental malignancies in animals [1]: active

Structure (SMILES): CCC1(O)CC2CN(CCc3c([nH]c4ccccc34)C(C(=O)OC)(c3cc4c(cc3OC)N(C)C3C(O)(C(=O)NCCCSSCCCNC(=O)C5(O)C(O)C6(CC)C=CCN7CCC8(c9cc(C%10(C(=O)OC)CC%11CN(CCc%12c%10[nH]c%10ccccc%12%10)CC(O)(CC)C%11)c(OC)cc9N(C)C58)C76)C(O)C5(CC)C=CCN6CCC43C65)C2)C1 (stereo not drawn) [bis[γ-(4-desacetyl VLB C-3 carboxamido)propyl]disulfide]
- pKa' [2]: 7.21
- pKa' (first value) [2]: 5.20

Structure (SMILES): CCC1(O)CC2CN(CCc3c([nH]c4ccccc34)C(C(=O)OC)(c3cc4c(cc3OC)N(C)C3C(O)(C(=O)NCCOCCNC(=O)C5(O)C(O)C6(CC)C=CCN7CCC8(c9cc(C%10(C(=O)OC)CC%11CN(CCc%12c%10[nH]c%10ccccc%12%10)CC(O)(CC)C%11)c(OC)cc9N(C)C58)C76)C(O)C5(CC)C=CCN6CCC43C65)C2)C1 (stereo not drawn) [bis[β-(4-desacetyl VLB C-3 carboxamido)ethyl]ether]
- pKa' [2]: 7.21
- pKa' (first value) [2]: 5.13

Structure (SMILES): CCC12CN3CCc4c([nH]c5ccccc45)C(C(=O)OC)(c4cc5c(cc4OC)N(C)C4C(O)(C(=O)NCCSSCCNC(=O)C6(O)C(O)C7(CC)C=CCN8CCC9(c%10cc(C%11(C(=O)OC)CC%12CN(CCc%13c%11[nH]c%11ccccc%13%11)CC%11(CC)OC%12%11)c(OC)cc%10N(C)C69)C87)C(O)C6(CC)C=CCN7CCC54C76)CC(C3)C1O2 (stereo not drawn) [bis[β-(4-Desacetylleurosine C-3 carboxamido)ethyl]disulfide disulfate]
- Percent Inhibition or Prolongation of Survival Time (P388 leukemia; P388, 15 mg./kg. × 3): 46%
- Percent Inhibition or Prolongation of Survival Time (P388 leukemia; P388, 30 mg./kg. × 3): 55%

Structure (SMILES): CCC1(O)CC2CN(CCc3c([nH]c4ccccc34)C(C(=O)OC)(c3cc4c(cc3OC)N(C)C3C(O)(C(=O)NCCCCNC(=O)C5(O)C(O)C6(CC)C=CCN7CCC8(c9cc(C%10(C(=O)OC)CC%11CN(CCc%12c%10[nH]c%10ccccc%12%10)CC(O)(CC)C%11)c(OC)cc9N(C)C58)C76)C(O)C5(CC)C=CCN6CCC43C65)C2)C1 (stereo not drawn) [1,4-bis(4-desacetyl VLB C-3 carboxamido)butane]
- pKa' [2]: 7.5
- pKa' (first value) [2]: 6.6

Structure (SMILES): CCC1(O)CC2CN(CCc3c([nH]c4ccccc34)C(C(=O)OC)(c3cc4c(cc3OC)N(C)C3C(O)(C(=O)NCC[Se][Se]CCNC(=O)C5(O)C(O)C6(CC)C=CCN7CCC8(c9cc(C%10(C(=O)OC)CC%11CN(CCc%12c%10[nH]c%10ccccc%12%10)CC(O)(CC)C%11)c(OC)cc9N(C)C58)C76)C(O)C5(CC)C=CCN6CCC43C65)C2)C1 (stereo not drawn) [bis[β-(4-desacetyl VLB C-3 carboxamido)ethyl]diselenide]
- pKa' [2]: 7.22
- pKa' (first value) [2]: 5.10

Structure (SMILES): CCC1(O)CC2CN(CCc3c([nH]c4ccccc34)C(C(=O)OC)(c3cc4c(cc3OC)N(C)C3C(O)(C(=O)NCCCNCCCNC(=O)C5(O)C(O)C6(CC)C=CCN7CCC8(c9cc(C%10(C(=O)OC)CC%11CN(CCc%12c%10[nH]c%10ccccc%12%10)CC(O)(CC)C%11)c(OC)cc9N(C)C58)C76)C(O)C5(CC)C=CCN6CCC43C65)C2)C1 (stereo not drawn) [bis[γ-(4-desacetyl VLB C-3 carboxamido)propyl]amine]
- pKa' [2]: 7.17
- pKa' (first value) [2]: 4.98
- pKa' (third printed value) [2]: 10.18

Structure (SMILES): CCC1(O)CC2CN(CCc3c([nH]c4ccccc34)C(C(=O)OC)(c3cc4c(cc3OC)N(C)C3C(O)(C(=O)NCCSCCNC(=O)C5(O)C(O)C6(CC)C=CCN7CCC8(c9cc(C%10(C(=O)OC)CC%11CN(CCc%12c%10[nH]c%10ccccc%12%10)CC(O)(CC)C%11)c(OC)cc9N(C)C58)C76)C(O)C5(CC)C=CCN6CCC43C65)C2)C1 (stereo not drawn) [bis[β-(4-Desacetyl VLB C-3 carboxamido)ethyl]sulfide disulfate]
- Percent Inhibition or Prolongation of Survival Time (P388 leukemia; P388, 0.6 mg./kg. × 3): 34%
- Percent Inhibition or Prolongation of Survival Time (P388 leukemia; P388, 0.9 mg./kg. × 3): 49%
- Percent Inhibition or Prolongation of Survival Time (P388 leukemia; P388, 1.2 mg./kg. × 3): 33%

Structure (SMILES): CCC12CN3CCc4c([nH]c5ccccc45)C(C(=O)OC)(c4cc5c(cc4OC)N(C)C4C(O)(C(=O)NCCSSCCNC(=O)C6(O)C(O)C7(CC)C=CCN8CCC9(c%10cc(C%11(C(=O)OC)CC%12CN(CCc%13c%11[nH]c%11ccccc%13%11)CC%11(CC)OC%12%11)c(OC)cc%10N(C)C69)C87)C(O)C6(CC)C=CCN7CCC54C76)CC(C3)C1O2 (stereo not drawn) [bis[β-(4-desacetylleurosine C-3 carboxamido)ethyl]disulfide]
- pKa' [2]: 7.0
- pKa' (first value) [2]: 5.3
